US20060069132A1, “Azolecarboxamide herbicides” (priority 2004, published 2006)

Tests used:
soybean = assay: Test C pre-/postemergence herbicide test; format: in vivo, Glycine max; settings: for Soybean plant response rating: 500 g ai/ha
How it was run: (§1)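 Pre/post spray; non-phytotoxic solvent + surfactant. Post-timing 1–4 leaves, 2–18 cm. Read-out: visual % control vs untreated, day 12–14, greenhouse.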

morningglory = assay: Test B pre-/postemergence herbicide test; format: in vivo, Ipomoea coccinea; settings: for Plant response rating, Morningglory: preemergence; for Morningglory plant response rating: postemergence, visual rating, scale 0 (no effect) to 100 (complete control)
How it was run: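 Formulation: non-phytotoxic solvent mix with surfactant. Timing: preemergence on seed and postemergence on 2–18 cm plants, applied concurrently. Readout after 13–15 d greenhouse: visual 0–100 control rating against controls.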

lambsquarters = assay: Test B pre-/postemergence herbicide test; format: in vivo, Chenopodium album; settings: for Plant response rating, Lambsquarters: preemergence; for Lambsquarters plant response rating: postemergence, visual rating, scale 0 (no effect) to 100 (complete control)
How it was run: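 Evaluation is visual, comparing treated with control plants on a scale where 0 means no effect and 100 means full control. Treatments were preemergence, or postemergence on seedlings 2–18 cm tall, and held 13–15 days in the greenhouse.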

yellow nutsedge = assay: Test C pre-/postemergence herbicide test; format: in vivo, Cyperus esculentus; settings: for Nutsedge, Yellow plant response rating: 500 g ai/ha
How it was run: as §1

eastern black nightshade = assay: Test C pre-/postemergence herbicide test; format: in vivo, Solanum ptycanthum; settings: for Plant response rating (0 = no effect, 100 = complete control), Nightshade: 62 g ai/ha; for Plant response rating (0 = no effect, 100 = complete control), Nightshade / Plant response rating, Nightshade: preemergence; for Plant response rating, Nightshade: 125 g ai/ha, scale 0 (no effect) to 100 (complete control), visual, 12 to 14 days; for Nightshade plant response rating: Preemergence, 500 g ai/ha, scale 0 to 100, 0 no effect, 100 complete control
How it was run: as §1

kochia = assay: Test C pre-/postemergence herbicide test; format: in vivo, Kochia scoparia; settings: for Kochia plant response rating: Preemergence, 500 g ai/ha
How it was run: as §1

cocklebur = assay: Test C pre-/postemergence herbicide test; format: in vivo, Xanthium strumarium; settings: for Cocklebur plant response rating: 500 g ai/ha
How it was run: as §1

redroot pigweed = assay: Test A pre-/postemergence herbicide test; format: in vivo, Amaranthus retroflexus
How it was run: (§2)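 Greenhouse injury scoring (0–100, complete control = 100) at approximately ten days follows simultaneous pre- and postemergence application. Soil received a directed spray after seeding; seedlings of 2–10 cm at the one- to two-leaf stage were sprayed to runoff.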

barnyardgrass = assay: Test A pre-/postemergence herbicide test; format: in vivo, Echinochloa crus-galli
How it was run: as §2

[1] = 125 g ai/ha, scale 0 (no effect) to 100 (complete control), visual, 12 to 14 days, preemergence
[2] = Preemergence, scale 0 to 100, 0 no effect, 100 complete control
[3] = 500 g ai/ha, visual rating 0-100, 0 no effect, 100 complete control
[4] = 125 g ai/ha, 0 to 100 scale, 0 is no effect, 100 is complete control
[5] = scale 0 to 100, 0 no effect, 100 complete control
[6] = 250 g ai/ha, scale 0 to 100 (0 no effect, 100 complete control), visual, 12 to 14 days, preemergence
[7] = Postemergence, 500 g ai/ha, 0 to 100 scale, 0 no effect, 100 complete control
[8] = Postemergence, 2000 g ai/ha, 0 to 100 scale, 0 no effect, 100 complete control
[9] = Preemergence, 2000 g ai/ha, visual rating, 0 to 100 scale (0 no effect, 100 complete control)
[10] = preemergence, 500 g ai/ha, visual injury, 0 to 100 scale (0 no effect, 100 complete control)
[11] = Preemergence, 500 g ai/ha, visual rating, 0 to 100 scale (0 no effect, 100 complete control)
[12] = Postemergence, 250 g ai/ha, scale 0 to 100, 0 no effect, 100 complete control
[13] = postemergence, 125 g ai/ha, scale 0 to 100
[14] = postemergence, 62 g ai/ha, scale 0 to 100

CCN(CC)C(=O)c1cccc(NC(=O)c2cc(C(C)(C)C)nn2CC)n1 [Compound 145]
Plant response rating, Soybean (soybean; [1]): 10 | Soybean plant response rating (soybean; [2]): 60 | Plant response rating, Morningglory (morningglory; [3]): 40 | Morningglory plant response rating (morningglory; 125 g ai/ha): 0 | Morningglory plant response rating (morningglory; 500 g ai/ha): 20 | Plant response rating, Morningglory (morningglory; [4]): 30 | Plant response rating, Lambsquarters (lambsquarters; [3]): 100 | Lambsquarters plant response rating (lambsquarters; 125 g ai/ha): 60 | Lambsquarters plant response rating (lambsquarters; 500 g ai/ha): 70 | Plant response rating, Lambsquarters (lambsquarters; [4]): 80 | Plant response rating (0 = no effect, 100 = complete control), Nutsedge, Yellow (yellow nutsedge; 62 g ai/ha, preemergence): 0 | Plant response rating, Nutsedge, Yellow (yellow nutsedge; [1]): 0 | Nutsedge, Yellow plant response rating (yellow nutsedge; [2]): 0 | Plant response rating (0 = no effect, 100 = complete control), Nightshade (eastern black nightshade): 60 | Plant response rating, Nightshade (eastern black nightshade): 70 | Nightshade plant response rating (eastern black nightshade): 90 | Plant response rating (0 = no effect, 100 = complete control), Kochia (kochia; 62 g ai/ha, preemergence): 20 | Plant response rating, Kochia (kochia; [1]): 60 | Kochia plant response rating (kochia; [5]): 80 | Plant response rating (0 = no effect, 100 = complete control), Cocklebur (cocklebur; 62 g ai/ha, preemergence): 0 | Plant response rating, Cocklebur (cocklebur; [1]): 0 | Plant response rating, Cocklebur (cocklebur; [6]): 0 | Cocklebur plant response rating (cocklebur; [2]): 0 | Pigweed plant response rating (redroot pigweed; [7]): 90 | Plant response rating, Pigweed (redroot pigweed; [8]): 100 | Pigweed plant response rating (redroot pigweed; [9]): 100 | Pigweed plant response rating (redroot pigweed; [10]): 95 | Barnyardgrass plant response rating (barnyardgrass; [7]): 40 | Plant response rating, Barnyardgrass (barnyardgrass; [8]): 100 | Barnyardgrass plant response rating (barnyardgrass; [11]): 95 | Barnyardgrass plant response rating (barnyardgrass; [9]): 100

CCn1nc(C(C)(C)C)cc1C(=O)Nc1cccc(C(=O)NC2CC2)n1 [Compound 146]
Plant response rating (0 = no effect, 100 = complete control), Soybean (soybean; 62 g ai/ha, preemergence): 0 | Plant response rating, Soybean (soybean; [1]): 0 | Soybean plant response rating (soybean; Postemergence, scale 0 to 100): 80 | Plant response rating, Soybean (soybean; [12]): 30 | Soybean plant response rating (soybean; [2]): 0 | Plant response rating, Soybean (soybean; [13]): 20 | Plant response rating, Soybean (soybean; [14]): 20 | Plant response rating, Morningglory (morningglory; [3]): 10 | Morningglory plant response rating (morningglory; 125 g ai/ha): 0 | Morningglory plant response rating (morningglory; 500 g ai/ha): 20 | Plant response rating, Morningglory (morningglory; [4]): 0 | Plant response rating, Lambsquarters (lambsquarters; [3]): 100 | Lambsquarters plant response rating (lambsquarters; 125 g ai/ha): 80 | Lambsquarters plant response rating (lambsquarters; 500 g ai/ha): 90 | Plant response rating, Lambsquarters (lambsquarters; [4]): 80 | Plant response rating (0 = no effect, 100 = complete control), Nutsedge, Yellow (yellow nutsedge; 62 g ai/ha, preemergence): 0 | Plant response rating, Nutsedge, Yellow (yellow nutsedge; [1]): 0 | Nutsedge, Yellow plant response rating (yellow nutsedge; Postemergence, scale 0 to 100): 0 | Plant response rating, Nutsedge, Yellow (yellow nutsedge; [12]): 0 | Nutsedge, Yellow plant response rating (yellow nutsedge; [2]): 0 | Plant response rating, Nutsedge, Yellow (yellow nutsedge; [13]): 0 | Plant response rating, Nutsedge, Yellow (yellow nutsedge; [14]): 0 | Plant response rating (0 = no effect, 100 = complete control), Nightshade (eastern black nightshade): 50 | Plant response rating, Nightshade (eastern black nightshade): 60 | Nightshade plant response rating (eastern black nightshade): 100 | Plant response rating (0 = no effect, 100 = complete control), Kochia (kochia; 62 g ai/ha, preemergence): 50 | Plant response rating, Kochia (kochia; [1]): 50 | Plant response rating, Kochia (kochia; [12]): 20 | Kochia plant response rating (kochia; [5]): 100 | Plant response rating, Kochia (kochia; [14]): 5 | Plant response rating (0 = no effect, 100 = complete control), Cocklebur (cocklebur; 62 g ai/ha, preemergence): 0 | Plant response rating, Cocklebur (cocklebur; [1]): 0 | Plant response rating, Cocklebur (cocklebur; [6]): 0 | Cocklebur plant response rating (cocklebur; Postemergence, scale 0 to 100): 20 | Plant response rating, Cocklebur (cocklebur; [12]): 10 | Cocklebur plant response rating (cocklebur; [2]): 0 | Plant response rating, Cocklebur (cocklebur; [13]): 5 | Plant response rating, Cocklebur (cocklebur; [14]): 5 | Pigweed plant response rating (redroot pigweed; [7]): 85 | Plant response rating, Pigweed (redroot pigweed; [8]): 100 | Pigweed plant response rating (redroot pigweed; [9]): 95 | Pigweed plant response rating (redroot pigweed; [10]): 85 | Barnyardgrass plant response rating (barnyardgrass; [7]): 50 | Plant response rating, Barnyardgrass (barnyardgrass; [8]): 75 | Barnyardgrass plant response rating (barnyardgrass; [11]): 70 | Barnyardgrass plant response rating (barnyardgrass; [9]): 80
